{
  "source": "patent US4745101A",
  "about": "“Novel peptide having dentinal fluid transport-stimulating activity” (Teikoku Hormone Mfg. Co., Ltd., priority 1985, dated 1988)",
  "assay": "Solubility",
  "format": "physicochemical",
  "excerpt": "Soluble in water and physiological saline. Insoluble in acetone.",
  "note": "Where no end group is shown, it is not given here.",
  "data": [
    {"sequence": "GVIAWELQHNQPGRKDSTAG [Peptide of the invention]", "values": [
      {"measurement": "Solubility", "setting": "in acetone", "value": "Insoluble"},
      {"measurement": "Solubility", "setting": "in physiological saline", "value": "Soluble"},
      {"measurement": "Solubility", "setting": "in water", "value": "Soluble"}
    ]}
  ]
}
